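Each compound was tested at five concentrations against cells in 96-well plates for 48 hours. GI50: concentration for 50% inhibition of growth. TGI: total growth inhibition.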
How the values were obtained:
Assay in all cases: inhibition of tumour cell growth, NCI panel, 48 h
T-47D breast = tested on: T-47D breast
MDA-MB-231 breast = tested on: MDA-MB-231 breast
PC-3 prostate = tested on: PC-3 prostate
DU-145 prostate = tested on: DU-145 prostate
MCF7 breast = tested on: MCF7 breast
MDA-MB-435 = tested on: MDA-MB-435

SMILES	GI50 (T-47D breast)	TGI (T-47D breast)	GI50 (MDA-MB-231 breast)	TGI (MDA-MB-231 breast)	GI50 (PC-3 prostate)	TGI (PC-3 prostate)	GI50 (DU-145 prostate)	TGI (DU-145 prostate)	GI50 (MCF7 breast)	TGI (MCF7 breast)	GI50 (MDA-MB-435)	TGI (MDA-MB-435)
CN1CCn2c(c(Sc3ccc(C(=O)NO)cc3)c3ccccc32)C1=O	1.53 µM	3.91 µM	2130 nM	5.09 µM	1960 nM	4.57 µM	2.97 µM	12.8 µM	2800 nM	> 77.1 µM	–	–
Cc1nn(-c2nc3ccccc3[nH]2)c2c1C(c1ccc3c(c1)OCO3)CC(=O)N2 (stereo unspecified)	3.61 µM	> 39.6 µM	2180 nM	5.22 µM	3160 nM	22 µM	3.23 µM	9.12 µM	2980 nM	> 30.1 µM	2460 nM	6.3 µM
COc1cc(-c2oc3c(OC)c(O)c(OC)c(O)c3c(=O)c2OC)ccc1O	–	67.1 µM	–	> 100 µM	–	> 100 µM	–	> 100 µM	–	> 100 µM	–	49.1 µM
C=CC(=O)Nc1cccc(C)c1Nc1ncc2cc(-c3c(Cl)c(OC)cc(OC)c3Cl)ccc2n1	1.64 µM	> 100 µM	4020 nM	46.4 µM	2090 nM	23.3 µM	3.63 µM	> 100 µM	1970 nM	> 100 µM	4140 nM	17.4 µM
COCCNC(=O)c1ccc(-c2nc3ccc4[nH]ncc4c3c3c2CCCC3)cc1	1.97 µM	16.3 µM	2150 nM	73 µM	2960 nM	> 100 µM	2.12 µM	> 100 µM	2520 nM	20.4 µM	2830 nM	> 100 µM
CC(=O)c1c[nH]cc1CO	–	> 10 µM	–	–	–	> 10 µM	–	–	–	> 10 µM	–	–
N=C(N)c1ccc(-c2ccc(-c3cccs3)s2)nc1	2.06 µM	5.57 µM	1550 nM	3.39 µM	1880 nM	6.11 µM	1.8 µM	4.04 µM	1320 nM	3.3 µM	1740 nM	3.42 µM
CN(C)c1ccc(O)c2c1C[C@H]1C[C@H]3[C@H](N(C)C)C(=O)C(C(N)=O)=C(O)[C@@]3(O)C(=O)C1=C2O	5.29 µM	> 100 µM	10500 nM	43.6 µM	6610 nM	93.2 µM	5.07 µM	73.6 µM	10100 nM	> 100 µM	5180 nM	33.2 µM
CSC1C(=O)c2ccccc2/C(=N/Nc2nc3ccccc3s2)C1C (stereo unspecified)	8.65 µM	> 50 µM	7790 nM	15.8 µM	9280 nM	27.2 µM	9.59 µM	18.3 µM	5520 nM	34.7 µM	9380 nM	19.8 µM
O=C(CCCCCCC(=O)Nc1ccc2c(c1)/C(=C/c1ccc[nH]1)C(=O)N2)NO	–	–	991 nM	10 µM	851 nM	> 100 µM	0.969 µM	41.6 µM	437 nM	> 69.6 µM	332 nM	4.57 µM
N#Cc1nc2cc(F)c(F)cc2nc1-c1ccc(Cl)cc1	20.9 µM	> 62.1 µM	–	5.3 µM	4270 nM	20.2 µM	22.4 µM	> 82.6 µM	13100 nM	> 100 µM	17500 nM	39.1 µM
COc1ccc2c(c1)OC(N)=C(C#N)C2c1ccc(F)cc1 (stereo unspecified)	3.78 µM	> 100 µM	3090 nM	97.5 µM	3090 nM	99 µM	3.05 µM	> 100 µM	522 nM	> 100 µM	220 nM	0.601 µM
COC(=O)[C@@]1(O)C[C@H]2O[C@]1(C)n1c3ccccc3c3c4c(c5c6ccccc6n2c5c31)C(=O)NC4	0.0805 µM	2.05 µM	429 nM	2.88 µM	251 nM	2.95 µM	0.161 µM	5.9 µM	194 nM	4.34 µM	74.5 nM	1.6 µM
N#CC1=C(N)Oc2c(sc3c(F)cccc23)C1c1ccc(F)cc1 (stereo unspecified)	0.61 µM	26.9 µM	1440 nM	11.5 µM	892 nM	16.2 µM	1.79 µM	12.9 µM	391 nM	12.4 µM	212 nM	0.631 µM
OC(CNc1ccnc2cc(Cl)ccc12)CNC1CCCCC1 (stereo unspecified)	4.54 µM	18.7 µM	4210 nM	18.7 µM	8080 nM	28.7 µM	13.9 µM	28.2 µM	7360 nM	21.9 µM	1700 nM	3.28 µM
Clc1ccc2c(c1)-c1ccccc1C1=NCCN12	2.73 µM	8.27 µM	2690 nM	12.4 µM	2030 nM	6.83 µM	2.02 µM	4.62 µM	2180 nM	8.58 µM	2040 nM	5.76 µM
CN(C)CCNC(=O)c1cc2c3ccccc3[nH]c2c2ncccc12	18.4 µM	> 100 µM	5250 nM	26.8 µM	9140 nM	34.2 µM	11.5 µM	30.7 µM	4530 nM	20.9 µM	2890 nM	15.4 µM
CCCCCCCCCCCC[n+]1ccc(C(N)=O)cc1	3.06 µM	11.8 µM	2910 nM	10.9 µM	710 nM	3.55 µM	4.6 µM	17.2 µM	3700 nM	15.4 µM	3170 nM	14.9 µM
S=C(Nc1ccccc1)N(Cc1ccccc1)c1ccccc1	–	> 100 µM	–	> 100 µM	–	–	–	24.7 µM	–	> 100 µM	–	49.5 µM

Source: PubChem BioAssay (NCI)
